Patent US9133163B2, “Dihydropyrazole GPR40 modulators” (Bristol-Myers Squibb Company, priority 2012, dated 2015)

Columns and labels:
[1] = target: T1, hGPR40 (Homo sapiens, UniProt O14842); test: FDSS-based intracellular calcium assay; assay type: cell-based; design: 3xFLAG; expressed in transfected cells; conditions: intracellular Ca2+ response, cells expressing GPR40
Description: FDSS-Based Intracellular Calcium Assay
Compounds are dissolved in DMSO and diluted to desired concentrations with assay buffer and added to the cells as 3× solution (20 μL per well). Run fluorescence/luminescence reader FDSS (Hamamatsu) to read intracellular Ca^2+ response.

[2] = target: T1, hGPR40; test: GPR40 IP-One HTRF assay in HEK293/GPR40 inducible cell lines; assay type: cell-based; design: expressed in transfected cells; conditions: HEK293 cells with tetracycline-inducible human GPR40; read-out: hGPR40 IP1 EC50
Description: GPR40 IP-One HTRF Assays in HEK293/GPR40 Inducible Cell Lines
Human, mouse and rat GPR40-mediated intracellular IP-One HTRF assays were established using human embryonic kidney HEK293 cells stably transfected with a tetracycline-inducible human, mouse or rat GPR40 receptor. Cells were routinely cultured in growth medium containing DMEM (Gibco Cat. #12430-047), 10% qualified FBS (Sigma, Cat. #F2442), 200 μg/ml hygromycin (Invitrogen, Cat. #16087-010) and 1.5 μg/ml blasticidin (Invitrogen, Cat. #R210-01). About 12-15 million cells were passed into a T175 tissue culture flask (BD FALCON® 353112) with growth medium and incubated for 16-18 hours (overnight) at 370 C with 5% CO2. The next day, assay medium was exchanged with growth medium containing 1000 ng/mL of tetracycline (Fluka Analytical, Cat. #87128) to induce GPR40 expression for 18-24 hours at […] incubator with 5% CO2. After induction, the cells were washed with PBS (Gibco, Cat. #14190-036) and detached with Cell Stripper (CELLGRO®, Cat. #25-056-CL). 10-20 mL growth medium were added to the flask and cells were collected in 50 mL tubes (FALCON®, Cat. #352098) and spun at 1000 RPM for 5 minutes. Culture medium was aspirated and the cells were resuspended in 10 mL of 1× IP-One Stimulation Buffer from the Cisbio IP-One kit (Cisbio, Cat. #62IPAPEJ). The cells were diluted to 1.4×10^6 cells/mL in Stimulation Buffer.
Test compounds were 3-fold, 11-point serially diluted in DMSO in a REMP assay plate (Matrix Cat. #4307) by BIOCEL® (Agilent). The compounds were transferred into an Echo plate (LABCYTE, Cat. #LP-0200) and […] of diluted compounds were transferred to an assay plate (proxi-plate from Perkin Elmer, Cat. #6008289) by Echo acoustic nano dispenser (LABCYTE, model ECHO550). 14 μL of the diluted cells were then added to the assay plate by Thermo (SN 836 330) CombiDrop and incubated at room temperature for 45 minutes. Then 3 μL of IP1 coupled to dye D2 from the Cisbio IP-One kit were added to the assay plate followed by 3 μL of Lumi4TM-Tb cryptate K from the kit. The plate was further incubated at room for 1 hour before reading on the Envision (Perkin Elmer Model2101) with an HTRF protocol. Activation data for the test compound over a range of concentrations was plotted as percentage activation of the test compound (100%=maximum response). After correcting for background [(sample read-mean of low control)/(mean of high control−mean of low control)](low control is DMSO without any compound), EC50 values were determined. The EC50 is defined as the concentration of test compound which produces 50% of the maximal response and was quantified using the 4 parameter logistic equation to fit the data.

[3] = tested on: C57BL6 mice; test: Acute oral glucose tolerance test; assay type: in vivo; conditions: % change in glucose AUC (0-180 min) from vehicle, 0.3 mg/kg oral; for Acute oral glucose tolerance: co-administered with glucose 2 g/kg
Description: Acute Oral Glucose Tolerance Test
Ten week old C57BL6 mice were housed individually and fasted for 5 hours on the day of study. Tail vein sampling was performed from nicked tails to obtain plasma samples. Baseline plasma samples were taken at t=0. Mice were orally treated with vehicle or compounds co-administered with glucose (2 g/kg). Sampling thereafter from tails of treated mice at 20, 40, 60, 120 and 180 min provided data used for generating glucose excursion curves from which 0-180 min blood glucose excursion profiles were generated. The area under the curve (AUC) allowed for assessment of glucose lowering by compound treatments. Blood samples were collected in EDTA-treated tubes (MICROVETTE® CB300, Sarstedt, Numbrecht, Germany), stored on ice and spun @ 6000 rpm for 10 minutes. Plasma glucose was analyzed on the same day using an AU680 Clinical Chemistry Analyzer (Beckman Coulter, Brea, Calif.). Statistical analysis is a one way ANOVA with Dunnett's post hoc test or two-way student's t test where appropriate. P values less than 0.05 were considered statistically significant.

T1 sequence (O14842 whole entry): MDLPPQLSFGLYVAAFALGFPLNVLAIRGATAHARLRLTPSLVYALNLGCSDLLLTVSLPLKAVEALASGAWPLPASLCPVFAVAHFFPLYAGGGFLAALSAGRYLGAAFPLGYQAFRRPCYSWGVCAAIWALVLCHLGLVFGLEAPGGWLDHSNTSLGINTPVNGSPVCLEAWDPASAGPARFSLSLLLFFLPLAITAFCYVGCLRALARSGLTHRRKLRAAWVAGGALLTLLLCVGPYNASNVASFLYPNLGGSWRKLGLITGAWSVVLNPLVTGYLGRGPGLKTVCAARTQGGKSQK

SMILES	EC50 [1] [nM]	EC50 [2] [nM]	Acute oral glucose tolerance [3] [%]	Acute oral glucose tolerance (average of two experiments) ([3]; average of two experiments) [%]
CCOc1ccc(F)c(N2CCC(Oc3ccc(N4N=C(C(F)(F)F)[C@@H](C)[C@@H]4CC(=O)O)cc3)C(CC)C2)c1 (single isomer, unassigned) [Example 25 (Isomer 2)]	113	21	−38	
COc1cc(N2CC[C@@H](Oc3ccc(N4N=C(C(F)(F)F)[C@@H](C)[C@@H]4CC(=O)O)cc3)[C@H](C)C2)c(Cl)cn1 (single isomer, unassigned) [Example 81, Isomer 2 (neutral form)]	71	9	−54	
COc1ccc(F)c(N2CCC(Oc3ccc(N4N=C(C(F)(F)F)[C@@H](C)[C@@H]4CC(=O)O)cc3)CC2)c1 [Example 1, 2-((4S,5S)-1-(4-((1-(2-Fluoro-5-methoxyphenyl)piperidin-4-yl)oxy)phenyl)-4-methyl-3-(trifluoromethyl)-4,5-dihydro-1H-pyrazol-5-yl)acetic acid]	114	17	−47	
CCOc1cc(F)c(F)c(N2CCC(Oc3ccc(N4N=C(C(F)(F)F)[C@@H](C)[C@@H]4CC(=O)O)cc3)CC2)c1 [Example 17, 2-((4S,5S)-1-(4-((1-(5-Ethoxy-2,3-difluorophenyl)piperidin-4-yl)oxy)phenyl)-4-methyl-3-(trifluoromethyl)-4,5-dihydro-1H-pyrazol-5-yl)acetic acid]	286	294		
CCOc1ccc(F)c(N2CC[C@@H](Oc3ccc(N4N=C(C(F)(F)F)[C@@H](C)[C@@H]4CC(=O)O)cc3)[C@H](C)C2)c1 [Example 29, 2-((4S,5S)-1-(4-(((3R,4R)-1-(5-Ethoxy-2-fluorophenyl)-3-methylpiperidin-4-yl)oxy)phenyl)-4-methyl-3-(trifluoromethyl)-4,5-dihydro-1H-pyrazol-5-yl)acetic acid]	154	11		−52
Cc1ccc(F)c(N2CCC(Oc3ccc(N4N=C(C(F)(F)F)[C@@H](C)[C@@H]4CC(=O)O)cc3)CC2)c1 [Example 36, 2-((4S,5S)-1-(4-((1-(2-Fluoro-5-methylphenyl)piperidin-4-yl)oxy)phenyl)-4-methyl-3-(trifluoromethyl)-4,5-dihydro-1H-pyrazol-5-yl)acetic acid]	440	86		
COc1cccc(N2CCC(Oc3ccc(N4N=C(C(F)(F)F)[C@@H](C)[C@@H]4CC(=O)O)cc3)CC2)c1 [Example 40, 2-((4S,5S)-1-(4-((1-(3-Methoxyphenyl)piperidin-4-yl)oxy)phenyl)-4-methyl-3-(trifluoromethyl)-4,5-dihydro-1H-pyrazol-5-yl)acetic acid]	620	107		
CCc1ccc(F)c(N2CCC(Oc3ccc(N4N=C(C(F)(F)F)[C@@H](C)[C@@H]4CC(=O)O)cc3)CC2)c1 [Example 65, 2-((4S,5S)-1-(4-((1-(5-Ethyl-2-fluorophenyl)piperidin-4-yl)oxy)phenyl)-4-methyl-3-(trifluoromethyl)-4,5-dihydro-1H-pyrazol-5-yl)acetic acid]	583	297		
CCc1cccc(N2CCC(Oc3ccc(N4N=C(C(F)(F)F)[C@@H](C)[C@@H]4CC(=O)O)cc3)CC2)c1 [Example 71, 2-((4S,5S)-1-(4-((1-(3-Ethylphenyl)piperidin-4-yl)oxy)phenyl)-4-methyl-3-(trifluoromethyl)-4,5-dihydro-1H-pyrazol-5-yl)acetic acid]	1180	224		
COc1cc(N2CCC(Oc3ccc(N4N=C(C(F)(F)F)[C@@H](C)[C@@H]4CC(=O)O)cc3)CC2)c(Cl)cn1 [Example 77, 2-((4S,5S)-1-(4-((1-(5-Chloro-2-methoxypyridin-4-yl)piperidin-4-yl)oxy)phenyl)-4-methyl-3-(trifluoromethyl)-4,5-dihydro-1H-pyrazol-5-yl)acetic acid]	110	20	−38	
COc1cc(N2CCC(Oc3ccc(N4N=C(C(F)(F)F)[C@@H](C)[C@@H]4CC(=O)O)cc3)CC2)c(F)cn1 [Example 79, 2-((4S,5S)-1-(4-((1-(5-Fluoro-2-methoxypyridin-4-yl)piperidin-4-yl)oxy)phenyl)-4-methyl-3-(trifluoromethyl)-4,5-dihydro-1H-pyrazol-5-yl)acetic acid]	163	94		
[2H]C([2H])([2H])Oc1cc(N2CC[C@@H](Oc3ccc(N4N=C(C(F)(F)F)[C@@H](C)[C@@H]4CC(=O)O)cc3)[C@H](C)C2)c(Cl)cn1 [Example 87, 2-((4S,5S)-1-(4-(((3R,4R)-1-(5-Chloro-2-d3-methoxypyridin-4-yl)-3-methylpiperidin-4-yl)oxy)phenyl)-4-methyl-3-(trifluoromethyl)-4,5-dihydro-1H-pyrazol-5-yl)acetic acid]	74	6		
CCOc1ccc(F)c(N2CCC(Oc3ccc(N4N=C(c5ccc(C#N)cc5)[C@@H](C)[C@@H]4CC(=O)O)cc3)CC2)c1 [Example 93, 2-((4S,5S)-3-(4-Cyanophenyl)-1-(4-((1-(5-ethoxy-2-fluorophenyl)piperidin-4-yl)oxy)phenyl)-4-methyl-4,5-dihydro-1H-pyrazol-5-yl)acetic acid]	82	7	−56	
CCOc1ccc(F)c(N2CC[C@@H](Oc3ccc(N4N=C(c5ccc(C#N)cc5)[C@@H](CC)[C@@H]4CC(=O)O)cc3)[C@H](C)C2)c1 [Example 99, 2-((4S,5S)-3-(4-Cyanophenyl)-1-(4-(((3R,4R)-1-(5-ethoxy-2-fluorophenyl)-3-methylpiperidin-4-yl)oxy)phenyl)-4-ethyl-4,5-dihydro-1H-pyrazol-5-yl)acetic acid]	25	20		
